Test results taken from publication PMC11089204 (Frontiers in Pharmacology, 2024).
pEC50: −log10 of the molar value.

Key:
recombinant CYP2D6 = biological target: T1, recombinant CYP2D6 (Homo sapiens, UniProt P10635); assay: Incubation with recombinant CYP2D6 enzymes; assay type: in vitro ADME; conditions: rec. CYP2D6 with CYP2D6 inhibitor quinidine
T1 construct: purchased Corning Life Sciences B.V
Experimental: Corning UltraPool human liver microsomes (HLM) 150 (20 mg/mL), human intestinal microsomes (HIM) pool (10 mg/mL) as well as recombinant human CYP enzymes (with P450 oxidoreductase, OR) including CYP1A2+OR (0.5 nmol), CYP2B6+OR (0.5 nmol), CYP2C8+OR (1.0 nmol), CYP2C9*1+OR (1 nmol), CYP2C19+OR (0.5 nmol), CYP2D6*1+OR (0.5 nmol), CYP2E1+OR + cytochrome b5 (1 nmol), CYP3A4+OR + cytochrome b5 (0.5 nmol), MAO-A (5 mg/mL), MAO-B (5 mg/mL), and UGT1A10 (5 mg/mL) were purchased from Corning Life Sciences B.V (Amsterdam, Netherlands). All microsomes and recombinant enzyme solutions were aliquoted and stored at −80 °C until further use.
The total volume of the reaction mixture was 500 μL. […] Samples were either directly analyzed by liquid chromatography tandem mass spectrometry (LC-MS/MS) or briefly stored at −20°C until analysis.

[1] = Pharmacokinetics and metabolites in mouse plasma after oral psilocybin; assay type: in vivo, C57BL/6J mice; conditions: male, C57BL/6J, po; mouse plasma, 3 mg/kg psilocybin p.o., n = 5; read-out: tmax (mean ± SD)
Experimental: C57BL/6J adult male mice (Janvier, Le Genest-Saint-Isle, France) were maintained in littermate pairs in standard cages (containing sawdust, a sleeping chamber, tissue paper, and a wood stick) with water and pellet food available ad libitium. The colony room was on a reversed light-dark cycle (dark phase 07:00 to 19:00) with temperature at 22°C and humidity at 50–60%. A total of 10 mice were dosed orally with either 3 mg/kg bodyweight psilocybin (n = 5) or saline solution (n = 5). Dosing and blood sampling were conducted between 09:00 and 13:00. The mouse was placed in a plastic restrainer with the tail protruding through a hole in the end of the tube. The tail was immersed in warm water for 1 min for vasodilation and then a small incision was made on the lateral tail surface near the distal tip. 50 μL of blood was massaged gently into an EDTA-coated capillary blood tube (Mircovette, Sarstedt, Nümbrecht, Germany). The first (baseline) blood sample was collected directly before compound administration via oral gavage and the mouse was then returned to the home cage. Further blood samples were collected at 15, 30, 60, and 120 min post-treatment. Each sample was drawn from the same incision site, with mice maintained in the home cage in the intervening periods. The blood samples were stored on ice and centrifuged for 10 min at 780 × g and 4°C. Subsequently, the plasma was transferred into cryotubes (Protein LoBind, Eppendorf) and stored at −80 °C until analysis. All procedures were conducted under a permit for animal experimentation (ZH038/2022) issued by the Veterinary Office Zurich in accordance with the Animal Protection Act (1978) of Switzerland. The use of psilocybin was authorized by the Federal Office of Public Health (FOPH).
Pharmacokinetic parameters were calculated using Phoenix WinNonlin software (version 8.1.0, Certara, Princeton, USA). The elimination half-life (t1/2, min) was assessed as t1/2 = ln(2)/λ, while the elimination constant was calculated by linear regression in the terminal elimination phase. The maximal plasma concentration (Cmax, ng/mL) and the time to reach this concentration (tmax, h) were direct read-outs of the graphical plots.

mice = system: mice; set-up: method as in Sherwood et al., 2020; conditions: ref Sherwood et al., 2020; cited from earlier work
mouse 5-HT2A receptor = biological target: mouse 5-HT2A receptor; set-up: method as in Sherwood et al., 2020; conditions: Gq-dependent calcium flux, nearly full agonist; ref Sherwood et al., 2020; cited from earlier work
[2] = Metabolites in human plasma after oral psilocybin (reanalysed study samples); conditions: 30 mg psilocybin p.o., n = 5

T1 sequence (P10635 whole entry): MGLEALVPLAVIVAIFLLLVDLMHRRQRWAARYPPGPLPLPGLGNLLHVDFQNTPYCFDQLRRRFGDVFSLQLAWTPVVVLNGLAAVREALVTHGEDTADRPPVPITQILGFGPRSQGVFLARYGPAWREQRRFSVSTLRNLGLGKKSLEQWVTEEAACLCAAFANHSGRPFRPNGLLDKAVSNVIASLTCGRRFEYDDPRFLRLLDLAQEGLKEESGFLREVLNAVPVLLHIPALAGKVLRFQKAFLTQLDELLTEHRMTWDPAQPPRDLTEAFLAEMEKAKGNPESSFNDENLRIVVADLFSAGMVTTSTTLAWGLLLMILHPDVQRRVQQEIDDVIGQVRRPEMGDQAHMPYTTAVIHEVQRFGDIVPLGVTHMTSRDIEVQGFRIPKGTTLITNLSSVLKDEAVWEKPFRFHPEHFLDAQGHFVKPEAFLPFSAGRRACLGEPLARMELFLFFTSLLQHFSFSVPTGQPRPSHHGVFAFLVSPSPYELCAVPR

For `CNCCc1c[nH]c2cccc(O)c12` [norpsilocin, N-methyl-4-hydroxytryptamine], the “metabolite formation on co-incubation with quinidine” value (recombinant CYP2D6) is given as “reduced and delayed formation”, the Tmax [1] is given as roughly 15 min and the “psychoactive properties in head-twitch response” value (mice) is given as “did not show any psychoactive properties”. The pEC50 (mouse 5-HT2A receptor) was greater than 8.00 and the “detection in human plasma” value [2] was “neither norpsilocin nor 4-HTP was detected”.
